Measured values published in patent publication US20170165317A1, “METHOD FOR MITIGATING OR ALLEVIATING SYNAPTIC AND COGNITIVE DEFICITS” (Trustees of Dartmouth College, priority 2013, published 2017).

How the values were obtained:
PTEN = assay: phospho-Akt and phospho-Tyr levels in acute hippocampal slices; type: cell-based, mice
Aβ42 = target: T1, Aβ42 (Homo sapiens, UniProt P05067); assay: Thioflavin-T fluorescence assay of Aβ42 aggregation; type: biochemical; conditions: 50 nM VO-OHpic or 15 nM bPV(HOpic), 37° C.
T1 construct: Lyophilized Aβ42 peptide was purchased from Keck Facility at Yale University; purchased Keck Facility at Yale University; host or cells: synthetic peptide
T1 sequence (P05067 672-713): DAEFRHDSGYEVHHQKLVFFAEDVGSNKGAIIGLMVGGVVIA
Description: Freshly prepared Aβ42 was prepared as described for protofibrillar Aβ42. The Thioflavin-T (ThT) assay was carried out at 37° C., within a dark chamber in a 96-well plate. Each well contained 100 ng/μL of Aβ42, 20 μM ThT and 50 nM VO-OHpic or 15 nM bPV(HOpic). Fluorescence (λex=450 nm; λem=485 nm) was followed over time in a FLUOSTAR OPTIMA (BMG LabTech) fluorescence spectrophotometer. Samples were run in triplicates. […] Thus, the observed rescue of basal synaptic transmission, LTP and cognition, with VO-OHpic was not likely due to an altered aggregation state of Aβ upon PTEN inhibition.

APP/PS1 mice [1] = assay: Auditory-cued fear conditioning (hippocampal-independent) after i.c.v. infusion; type: in vivo, mouse; conditions: wild-type vs APP/PS1 mice, with or without VO-OHpic
Description: APP/PS1 and wild-type mice were anesthetized with isofluorane, and i.c.v. delivery cannulas (brain alzet kit III) were implanted with a stereotaxic frame (KOPF Instruments) at the following coordinates according to the bregma: AP, −0.5 mm; ML, 1 mm; and DV, −2.2 mm. Osmotic minipumps (Alzet) were filled with artificial cerebrospinal fluid (aCSF) with or without PTEN inhibitor VO-OHpic (2.5 μM) and equilibrated in 0.9% NaCl at 37° C. for 48 hours. They were attached to the i.c.v. cannula tubing and subcutaneously implanted at the back. After 21 days, behavioral testing was started as described herein. […]
Fear conditioning. […] The animals' behavior was scored by an observer blind to the treatment condition. Using a time-sampling procedure every 2 seconds, each mouse was scored blindly as either freezing or active at the instant the sample was taken. […]
(§1) It was posited that if early Aβ-induced cognitive impairment results from a general synaptic bias toward LTD events (Selkoe (2002) Science 298:789-791), dampening this form of synaptic plasticity might prevent cognitive decay. Therefore, it was determined whether in vivo inhibition of PTEN, a lipid phosphatase that is involved in LTD (Jurado, et al. (2010) EMBO J. 29:2827-2840), would rescue cognitive deficits in APP/PS1 mice. […]

APP/PS1 mice [2] = assay: Novel object location task after i.c.v. infusion by osmotic minipump; type: in vivo, mouse; conditions: VO-OHpic infused 3-4 weeks into brain ventricles
Description: APP/PS1 and wild-type mice were anesthetized with isofluorane, and i.c.v. delivery cannulas (brain alzet kit III) were implanted with a stereotaxic frame (KOPF Instruments) at the following coordinates according to the bregma: AP, −0.5 mm; ML, 1 mm; and DV, −2.2 mm. Osmotic minipumps (Alzet) were filled with artificial cerebrospinal fluid (aCSF) with or without PTEN inhibitor VO-OHpic (2.5 μM) and equilibrated in 0.9% NaCl at 37° C. for 48 hours. They were attached to the i.c.v. cannula tubing and subcutaneously implanted at the back. After 21 days, behavioral testing was started as described herein. One month after implantation, mice were sacrificed and the brains were sliced stained with Nissl to verify the location of the cannula. Animal manipulation and data analysis was carried out blind with respect to genotype and treatment.
Novel-Object Location. This assay was chosen because it is not intrinsically stressful. This factor, in mice, crucially affects cognitive performance in other spatial learning paradigms (e.g., Morris water maze). The memory tests were composed of three phases—“habituation”, “sample” and “choice” trials. Mice were first habituated individually to an empty open-field box (35×35×15 high cm) for 30 minutes. A sample trial (object exposure) consisted of placing a mouse into the test box which contained two identical objects. […] A recognition index was calculated by dividing the total time spent exploring the displaced object by the total time spent exploring both objects during the test session. […]
as §1

O=C(O)c1ncccc1O.O=C(O)c1ncccc1O.[O]=[V][O-] [VO-OHpic]
phospho-Akt (PIP3 downstream effector) (PTEN): upregulation
phospho-Tyr levels (specificity versus Tyr phosphatases) (PTEN): lack of effect
Aβ42 aggregation (ThT fluorescence) (Aβ42): does not alter Aβ42 aggregation
auditory-cued fear conditioning (percentage freezing to the tone) (APP/PS1 mice [1]): did not show significant difference
performance in novel object location task (recognition index) (APP/PS1 mice [2]; APP/PS1 mice, P=0.02 vs vehicle-infused APP/PS1, recognition index similar to wild-type): significant improvement
performance in novel object location task (recognition index) (APP/PS1 mice [2]; wild-type mice): did not affect the performance
